In patent US20260209175A1, “PHARMACEUTICALLY ACCEPTABLE 5-METHOXY-N,N-DIMETHYL[…] AND COMPOSITIONS THEREOF” (priority 2022, published 2026):
Counter-ions that a name gives are not always drawn.

Columns and labels:
[1] = Polymorphism screen of hydrochloride salt (thermal cycling, evaporations), XRPD; format: physicochemical; conditions: for XRPD Result: lyophilised hydrochloride salt, thermally cycled between ambient and 40° C., three days
Method: To render the material amorphous and thus remove seeds of the pattern 1 the material was rendered amorphous. To 2.605 g of the hydrochloride lot RPI-014-022 dioxane (55 ml) and water (5 ml) was added. The mixture was agitated gently and warmed to aid dissolution.
Twenty five of the lyophilised samples were treated with solvent and thermally cycled between ambient and 40° C. with four hours spent under each condition. After three days and solids were isolated by centrifuge filtration and analysed by XRPD.
Twelve samples of the lyophilised material were treated with a minimal volume (ca 0.5 ml) of warm solvent, syringe filtered through a 0.22 µm filter and added to a clean HPLC vial and allowed to evaporate at RT. The solvents used and XRPD results following evaporation are detailed in the Table below: […]

[2] = Thermo-Gravimetric Analysis (TGA), thermal stability; format: physicochemical; conditions: 10° C./min ramp; for thermally stable up to (TGA): nitrogen
Method: TGA thermograms were obtained with a TA Instrument Discovery 550 in Al pans. The heating rate used was 10° C./min linear ramp from 25 to 400° C. with a nitrogen purging at a rate of 60 ml/min. TGA thermograms were analysed using TRIOS software.

[3] = Dynamic Vapor Sorption (DVS) analysis of salts, with XRPD of the post-DVS sample; format: physicochemical; conditions: for sorption/desorption behaviour (reversibility, hysteresis): DVS isotherm; for deliquescence during DVS: high RH
Method: XRPD diffractograms were acquired using Bruker D2 Phaser diffractometer equipped with LYNXEYE detector. Samples were prepared using a zero-background sample holder. The samples were scanned from 5 to 32° (2θ) using a step size of 0.02° and a time per step of 0.13 second whilst spinning the sample. Diffractograms were plotted using the EVA program from Bruker.
DVS analyses were performed on TA Instrument DVS Q5000. Samples were added to a pre-tared metallised quartz crucible and run at 25° C. from 40% RH to 90% RH, down to zero and back to 40%. This cycle was repeated in increments of 10% RH.

[4] = Solubility assessments in four different media; format: physicochemical; conditions: 250 mg per vial; for Observation: 1 ml media at 37° C.
Method: Solubility assessments of 5-MeO-DMT oxalate, hydrobromide fumarate and benzoate were performed in four different media: […]

[5] = format: physicochemical; conditions: 40° C./75% RH, three days
Method: Salt screening studies with 24 selected counter-ions were performed to determine if 5-MeO-DMT free base is amenable to salt formation. […] Salts were examined by XRPD, TGA, DSC, 1H NMR and some by DVS analyses. Short term physical stability was examined by storage of salts at 40° C./75% RH for three days.
Physical stability stress tests were conducted on generated crystalline salts at controlled temperature and relative humidity. The powder samples were stored at 40° C./75% RH for three days. After this time samples were analysed by XRPD to see whether the physical state of salts changed during the storage.

COc1ccc2[nH]cc(CCN(C)C)c2c1.Cl [DJP2202-007-02]
XRPD Result ([1]; 1-Propanol): Pattern 1

COc1ccc2[nH]cc(CCN(C)C)c2c1 [Saccharinate salt, 5-MeO-DMT saccharinate]
thermally stable up to (TGA) [2]: 200 °C

COc1ccc2[nH]cc(CCN(C)C)c2c1 [glycolate salt, 5-MeO-DMT glycolate]
total moisture uptake between 0% RH and 90% RH, 1st cycle ([3]; 25° C, 1st cycle): approximately 62 % w/w | total moisture uptake between 0% RH and 90% RH, 2nd cycle ([3]; 25° C, 2nd cycle): ~59 % w/w | sorption/desorption behaviour (reversibility, hysteresis) ([3]; 25° C): hysteresis between 40-80% RH | water uptake up to 60% RH ([3]; first sorption isotherm): 2.3 % w/w | moisture absorption at 70% RH ([3]; first sorption isotherm): 11 % w/w | moisture absorption at 80% RH ([3]; first sorption isotherm): 33 % w/w | deliquescence during DVS [3]: begins to deliquesce | thermally stable up to (TGA) [2]: around 155 °C

COc1ccc2[nH]cc(CCN(C)C)c2c1 [Ketoglutarate salt, 5-MeO-DMT ketoglutarate]
water uptake at 40% RH ([3]; first sorption isotherm, 40% RH): 0.13 % w/w | moisture absorption at 80% RH ([3]; first sorption isotherm): 2.55 % w/w | water uptake at 90% RH ([3]; first sorption isotherm, 90% RH): 28.14 % w/w | deliquescence during DVS [3]: deliquesce at high RH

COc1ccc2[nH]cc(CCN(C)C)c2c1 [free base, 5-methoxy-N,N-dimethyltryptamine]
thermally stable up to (TGA) [2]: 150 °C

COc1ccc2[nH]cc(CCN(C)C)c2c1.Cl [DJP2202-007-16]
XRPD Result ([1]; Methylethyl ketone): Pattern 2

COc1ccc2[nH]cc(CCN(C)C)c2c1.Cl [DJP2202-007-12]
XRPD Result ([1]; Ethyl acetate): Pattern 1

COc1ccc2[nH]cc(CCN(C)C)c2c1 [Benzenesulfonate salt, 5-MeO-DMT benzenesulfonate]
total water (moisture) uptake between 0% RH and 90% RH ([3]; 25° C): approximately 21 % w/w | sorption/desorption behaviour (reversibility, hysteresis) ([3]; 25° C): hysteresis between 40-80% RH | water uptake up to 60% RH ([3]; first sorption isotherm): 1.2 % w/w | moisture absorption at 70% RH ([3]; first sorption isotherm): 7 % w/w | moisture absorption at 80% RH ([3]; first sorption isotherm): 14 % w/w | deliquescence during DVS [3]: begins to deliquesce | thermally stable up to (TGA) [2]: 250 °C

COc1ccc2[nH]cc(CCN(C)C)c2c1.Cl [Hydrochloride pattern 2, 5-MeO-DMT hydrochloride]
onset of decomposition / mass loss (TGA) ([2]; hydrochloride): around 256 °C

COc1ccc2[nH]cc(CCN(C)C)c2c1.Cl [DJP2202-007-10]
XRPD Result ([1]; Chlorobenzene): Pattern 1

COc1ccc2[nH]cc(CCN(C)C)c2c1 [Fumarate salt, 5-MeO-DMT fumarate]
pH after addition of 1 ml media at 37° C. ([4]; SNF): 5.14 | Observation ([4]; SNF): Clear solution | pH after addition of 1 ml media at 37° C. ([4]; pH 1.2 buffer): 5.24 | Observation ([4]; pH 1.2 buffer): Clear solution | pH after addition of 1 ml media at 37° C. ([4]; pH 4.5 buffer): 5.31 | Observation ([4]; pH 4.5 buffer): Clear solution | pH after addition of 1 ml media at 37° C. ([4]; pH 6.8 buffer): 5.79 | Observation ([4]; pH 6.8 buffer): Clear solution | mass difference between 40% RH and 0% RH ([3]; salt produced during scale-up): ~ 2.84% | solid form after DVS (XRPD post DVS) ([3]; salt produced during scale-up): a change in crystalline form occurred | thermally stable up to (TGA) [2]: 150 °C

COc1ccc2[nH]cc(CCN(C)C)c2c1.Cl [DJP2202-007-06]
XRPD Result ([1]; 2-Propanol): Pattern 1

COc1ccc2[nH]cc(CCN(C)C)c2c1.Cl [DJP2202-007-15]
XRPD Result ([1]; Propyl acetate): Pattern 1

COc1ccc2[nH]cc(CCN(C)C)c2c1.Cl [hydrochloride salt, 5-MeO-DMT hydrochloride]
XRPD Results ([1]; evaporation at RT of lyophilised material from 1-PrOH, DJP2202-011-02): Pattern 1 | XRPD Results ([1]; evaporation at RT of lyophilised material from EtOH, DJP2202-011-05): Pattern 1 | XRPD Results ([1]; evaporation at RT of lyophilised material from IPA, DJP2202-011-06): Pattern 1 | XRPD Results ([1]; evaporation at RT of lyophilised material from MEK, DJP2202-011-11): Pattern 1 | XRPD Results ([1]; evaporation at RT of lyophilised material from MeCN, DJP2202-011-12): Oil | thermally stable up to (TGA) [2]: ~ 235 °C

COc1ccc2[nH]cc(CCN(C)C)c2c1.Cl [DJP2202-007-08]
XRPD Result ([1]; Acetonitrile): Pattern 1

COc1ccc2[nH]cc(CCN(C)C)c2c1.O=C(O)c1ccccc1 [benzoate salt pattern 2, 5-MeO-DMT benzoate]
thermally stable up to (TGA) [2]: ~ 170 °C

COc1ccc2[nH]cc(CCN(C)C)c2c1 [Tosylate salt, 5-MeO-DMT tosylate]
crystalline form by XRPD after storage [5]: identical XRPD pattern | total water (moisture) uptake between 0% RH and 90% RH ([3]; 25° C): approximately 1.9 % w/w | sorption/desorption behaviour (reversibility, hysteresis) ([3]; 25° C): reversibly without hysteresis | hygroscopicity classification ([3]; salt screen / scale-up batches, DVS at 25° C): slightly hygroscopic (Pharmaceuticals that pick up between 0.2% and 2.0% moisture at 80% RH are considered slightly hygroscopic) | solid form after DVS (XRPD post DVS) ([3]; salt screen batches): did not undergo any solid-state changes

COc1ccc2[nH]cc(CCN(C)C)c2c1.Cl [DJP2202-007-22]
XRPD Result ([1]; Tetrahydrofuran): Pattern 1

COc1ccc2[nH]cc(CCN(C)C)c2c1.Cl [DJP2202-007-05]
XRPD Result ([1]; 2-Methyltetrahydrofuran): Pattern 1

COc1ccc2[nH]cc(CCN(C)C)c2c1.O=C(O)CC(O)C(=O)O [Malate salt, 5-MeO-DMT malate]
crystalline form by XRPD after storage [5]: conversion to a “gum” material | thermally stable up to (TGA) [2]: around 170 °C

COc1ccc2[nH]cc(CCN(C)C)c2c1.O=C(O)c1ccccc1 [benzoate salt pattern 4, 5-MeO-DMT benzoate]
onset of decomposition / mass loss (TGA) [2]: ~ 190 °C | thermally stable up to (TGA) [2]: ~ 190 °C

COc1ccc2[nH]cc(CCN(C)C)c2c1.O=C(O)c1ccccc1 [benzoate salt pattern 3, 5-MeO-DMT benzoate]
onset of decomposition / mass loss (TGA) [2]: approximately 190 °C

COc1ccc2[nH]cc(CCN(C)C)c2c1 [Phosphate salt, 5-MeO-DMT phosphate]
crystalline form by XRPD after storage [5]: did not undergo any transformation | total reversible mass change between 0-90% RH ([3]; Example 3 Pattern 1 batches, listed as 5-MeO-DMT Phosphate Pattern 1): 0.3 wt. %

COc1ccc2[nH]cc(CCN(C)C)c2c1.Cl [DJP2202-007-11]
XRPD Result ([1]; Ethanol): Pattern 1

COc1ccc2[nH]cc(CCN(C)C)c2c1.Cl [DJP2202-007-21]
XRPD Result ([1]; 2-Me-1-PrOH): Pattern 1

COc1ccc2[nH]cc(CCN(C)C)c2c1.Cl [DJP2202-007-09]
XRPD Result ([1]; Anisole): Pattern 1

COc1ccc2[nH]cc(CCN(C)C)c2c1.Cl [DJP2202-007-03]
XRPD Result ([1]; 2-Butanol): Pattern 1

COc1ccc2[nH]cc(CCN(C)C)c2c1.Cl [DJP2202-007-20]
XRPD Result ([1]; iso-Propyl acetate (experiment 007-20)): Pattern 1

COc1ccc2[nH]cc(CCN(C)C)c2c1.Cl [DJP2202-007-07]
XRPD Result ([1]; Acetone): Pattern 1

COc1ccc2[nH]cc(CCN(C)C)c2c1.Cl [Hydrochloride pattern 3, 5-MeO-DMT hydrochloride]
onset of decomposition / mass loss (TGA) ([2]; hydrochloride): around 260 °C

COc1ccc2[nH]cc(CCN(C)C)c2c1.Cl [DJP2202-007-13]
XRPD Result ([1]; Isopropyl acetate (experiment 007-13)): Pattern 1
